In patent publication US20250376481A1, “POLYCYCLIC CARBAMOYL PYRIDONE DERIVATIVE, PREPARATION METHOD THEREFOR AND PHARMACEUTICAL COMPOSITION THEREOF” (NANJING AIDEA PHARMACEUTICAL TECHNOLOGY CO., LTD., priority 2021, published 2025):
Read-outs that look alike come from different tables or passages of the source.

Tests used:
[1] = test system: HIV-1 pseudovirus; assay: HIV-1 pseudovirus infection test (antiviral activity, luciferase); type: cell-based
Protocol: (§1) • Virus: The HIV-1 pseudovirus used in this experiment was a replication deficient virus, which is constructed by WuXi AppTec. • HEK 293T cell line was purchased from ATCC, and Item No. is CRL-11268. Cells were cultured in DMEM medium with 10% fetal bovine serum and 1% double antibody. • Reagents
(§2) On the first day, HEK 293T cells were inoculated into a 96 well test plate at the density of 55000 cells per well and […] per well, and incubated overnight in a 5% CO2 and 37° C. incubator.
(§3) On the second day, the tested compounds (compounds provided in the example of the present invention) and the control compounds were diluted 4-fold with cell culture medium for a total of 8 concentration points, and 50 μL diluted compounds were added to each well, and each well was performed duplicate.
Subsequently, the HIV-1 pseudovirus was diluted to 100 TCID50/50 μL with cell culture medium, and 50 μL diluted virus was added to each well.
(§4) Cell Control (cells, no compound treatment or virus infection) and virus control (cells infected with virus, no compound treatment) were set up. The final initial test concentration of the tested compounds and control compounds was 1000 nM (Table 1), and the amount of virus infection was 100 TCID50 per well. The total volume of cell culture medium was 200 μL per well, and the final concentration of DMSO in the culture medium was 0.5%.
(§5) The cells were cultured in a 5% CO2 and 37° C. incubator for additional 3 days.
On the fifth day, in the antiviral activity test plates, 100 μL cell supernatant was sucked away from each well, 100 μL 2X luciferase reporter gene assay reagent Britellite plus was added in dark. The luciferase activity in each well of the test plates was detected by Envision. The data was used for sample antiviral activity analysis.
(§6) Dose-response curve was drawn through GraphPad Prism software. The calculation equations for antiviral activity (% Inhibition) and cell viability (% cell viability) were as follow:
(§7) The values of EC50 and CC50 were analyzed by GraphPad Prism (version 5) software, and nonlinear fitting analysis was used for inhibitory activity and cell viability of the compounds, and the fitting method was “log (inhibitor) vs. response—Variable slope”.
(§8) 3. The HIV-1 pseudovirus experiment was applied to determinate the in vitro antiviral activity and cytotoxicity of the tested compound on HEK 293T cells, and the experimental results were shown in the table below.

[2] = Cytotoxicity test (cell viability, CellTier Glo); type: cell-based; settings: human
Protocol: as §1, §2, §3, §4, §5
(§9) On the fifth day, in the cytotoxicity test plates, 100 μL cell supernatant were sucked from each well, 100 μL cell viability assay reagent CellTier Gloin was added in dark. Cell viability in each well was detected by BioTek enzyme-linked immunosorbent assay reader, and the data was used for sample cytotoxicity analysis.
as §6, §7, §8

[3] = Oil-water partition coefficient (n-octanol / pH 7.4 phosphate buffer); type: physicochemical
Protocol: • a) To a 5 mL glass bottle was added 1 mL n-octanol and 1 mL pH 7.4 phosphate buffer, respectively. • b) The compound was added to a DMSO solution to prepare a compound stock solution with a concentration of 10 mM, and then 20 μL compound stock solution was added to the mixture solution of n-octanol and phosphate buffer. • c) Shaken at room temperature for 1 hour at a rate of 300/minute. • d) Kept for 30 minutes, and after the solution was completely layered, the upper and lower layers of the solution were taken separately to a 96 well deep well plate, and LC-MS/MS was used for detection via injection. • e) The aliquots of 1-octanol and aqueous solution were diluted consecutively with DMSO to obtain the final sample for LC-MS/MS analysis. Three consecutive dilutions were carried on every 1-octanol phase with covering a concentration range of 2500 fold. Every final aqueous phase was diluted consecutively twice with covering a concentration range of 100 fold. The MS peak areas of these solutions were used to generate log (peak area) based on the log (relative concentration) calibration line.
[formula] • Coct=sample concentration in n-octanol • Caq=sample concentration in pH 7.4 phosphate buffer

[4] = target: HIV-1 integrase (Human immunodeficiency virus type 1 group M subtype B, UniProt P04585); assay: Integrase activity test (HIV-1 Integrase Assay Kit EZ-1700)
Protocol: A non-radioactive assay method, an integrase assay kit, was used to measure integrase activity quantitatively.
Each component was prepared according to the instructions of the kit; preparation of test sample, 5 mM DMSO solution was prepared for backup, working solution was prepared according to the initial final concentration determined at the time of method establishment, with a 4-fold gradient dilution and 10 concentrations.
• (1) The working solution of sample was prepared according to the initial concentration determinated during the methodology establishment process; • (2) Reagents were prepared according to the methods provided in the kit; • (3) DS DNA coating—blocking—addition of integrase solution—addition of sample—addition of TS DNA—addition of HRP antibody-addition of TMB peroxidase substrate—TMB termination reaction-detection of light absorption value at 450 nm.
The software Graphpad Prism 8.0 was applied and the calculation equation of Log (inhibitor) vs. response variable slope was used to fit the IC50 curve.

[5] = PK test of compounds (mouse); type: in vivo, ICR mice; settings: for bioavailability (in words): PK test in mice; for half-life / bioavailability: male, mouse, plasma, ICR mice; for half-life: PO 10 mg/kg; for bioavailability: PO 10 mg/kg (IV 2 mg/kg)
Protocol: The mice were not fed until 5 pm on the day before administration, and fasted overnight with water. The mice in Group IV were administered with 2 mg/kg, while those in Group PO were administered with 10 mg/kg. Feeding was resumed 2 hours after administration. For mice administered by gavage, 20 μL blood was collected from the saphenous vein in calf before administration and 0.25, 0.5, 1, 2, 4, 8, and 24 hours after administration, respectively, and placed in EDTA-K2 anticoagulant blood collection tubes, and then the blood would be placed on ice until centrifuged to obtain plasma samples. The plasma samples were centrifuged at 4° C. (3500 rpm, 10 min), and after separation, the samples were transferred to EP tubes and stored at −80° C. for detection. For mice admistrated by intravenous injection, 20 μL blood was collected from the saphenous vein in calf before administration and 0.0833, 0.25, 0.5, 1, 2, 4, 8 and 24 hours after administration, respectively, and placed in EDTA-K2 anticoagulant blood collection tubes, and then the blood would be placed on ice until centrifuged to obtain a plasma sample. The plasma samples were centrifuged at 4° C. (3500 rpm, 10 min), and after separation, the samples were transferred to EP tubes and stored at −80° C. for detection. The level of tested compounds in blood plasma of mice, who had orally administrated with different concentrations of drugs were determinated: 10 μL mouse blood at each time point after administration was taken, 100 μL methanol containing an internal standard (100 ng/mL) was added, vortex mixed for 1 minute, centrifuged at 4° C. (12000 rmp, 5 minutes), and 1 μL supernatant was taken from the plasma samples for LC-MS/MS analysis.

[6] = test system: HEK 293T cells; assay: Cytotoxicity test (cell viability, CellTier Glo); type: cell-based; settings: HEK 293T cells, highest test concentration 1000 nM
Protocol: as §1, §2, §3, §4, §5, §9, §6, §7, §8

[7] = Human immunodeficiency virus 1, HEK-293T, 72 h
[8] = n-octanol / pH 7.4 phosphate buffer, pH 7.4, read-out: Log D (pH 7.4)
[9] = HIV-1 pseudovirus, HEK 293T cells, 3 days, luciferase, read-out: EC50

O=C(NCc1ccc(F)cc1F)c1cn2c(c(O)c1=O)C(=O)N1C(C2)OCCC12CC2 (racemic) [Compound 13, (2,4-difluorophenyl)-7′-hydroxy-6′,8′-dioxo-2′,3′,6′,8′,12′,12a′-hexahydrospiro[cyclopropane-1,4′-pyridino[1′,2′:4,5]pyrazine[2,1-b][1,3]oxazine]-9′-formamide]
EC50 [1, 7]: 1.05 nM | CC50 at 3 days [2]: > 1000 nM | logD ([3]; pH 7.4): 1.5

O=C(NCc1ccc(F)cc1F)c1cn2c(c(O)c1=O)C(=O)N1C(C2)OCC12CC2 (racemic) [Compound 16]
EC50 [1, 7]: 1.11 nM | CC50 at 3 days [2]: > 1000 nM | logD ([3]; pH 7.4): 1.8

O=C(NCc1c(F)cc(F)cc1F)c1cn2c(c(O)c1=O)C(=O)N1[C@H]3CC[C@H](C3)O[C@@H]1C2 [BIC, Bictegravir, reference compound]
IC50 [4]: 21.2 nM

C[C@H]1N2C(=O)c3c(O)c(=O)c(C(=O)NCc4ccc(F)cc4F)cn3C[C@@H]2OCC12CCC2 [Compound 2]
EC50 [1, 7]: 1.19 nM | CC50 at 3 days [2]: > 1000 nM | logD [3, 8]: 2.5 | bioavailability (in words) [5]: good bioavailability | half-life [5]: 1.94 ± 0.04 h | bioavailability [5]: 50.8%

C[C@H]1N2C(=O)c3c(O)c(=O)c(C(=O)NCc4ccc(F)cc4F)cn3C[C@@H]2OCC12CCCC2 [Compound 3]
EC50 [1, 7]: 5.63 nM | CC50 at 3 days [2]: > 1000 nM

C[C@H]1N2C(=O)c3c(O)c(=O)c(C(=O)NCc4ccc(F)cc4F)cn3C[C@@H]2OCC12CCCCC2 [Compound 4]
EC50 [1, 7]: 5.83 nM | CC50 at 3 days [2]: > 1000 nM

C[C@H]1N2C(=O)c3c(O)c(=O)c(C(=O)NCc4ccc(F)cc4F)cn3C[C@@H]2OCC12CCOCC2 [Compound 5]
EC50 [1, 7]: 4.45 nM | CC50 at 3 days [2]: > 1000 nM

C[C@@H]1CC2(CC2)O[C@H]2Cn3cc(C(=O)NCc4ccc(F)cc4F)c(=O)c(O)c3C(=O)N12 [Compound 6]
EC50 [1, 7]: 3.03 nM | CC50 at 3 days [2]: > 1000 nM | logD [3, 8]: 2 | bioavailability (in words) [5]: good bioavailability | half-life [5]: 2.68 ± 0.66 h | bioavailability [5]: 42.5%

C[C@@H]1CC2(CCCC2)O[C@H]2Cn3cc(C(=O)NCc4ccc(F)cc4F)c(=O)c(O)c3C(=O)N12 [Compound 7]
EC50 [1, 7]: 11.6 nM | CC50 at 3 days [2]: > 1000 nM

C[C@@H]1CC2(CCCCC2)O[C@H]2Cn3cc(C(=O)NCc4ccc(F)cc4F)c(=O)c(O)c3C(=O)N12 [Compound 8]
EC50 [1, 7]: 13.7 nM | CC50 at 3 days [2]: > 1000 nM

C[C@@H]1CC2(CCOCC2)O[C@H]2Cn3cc(C(=O)NCc4ccc(F)cc4F)c(=O)c(O)c3C(=O)N12 [Compound 9]
EC50 [1, 7]: 5.09 nM | CC50 at 3 days [2]: > 1000 nM

C[C@H]1N2C(=O)c3c(O)c(=O)c(C(=O)NCc4ccc(F)cc4F)cn3C[C@@H]2OC12CC2 [Compound 10]
EC50 [1, 7]: 2.7 nM | CC50 at 3 days [2]: > 1000 nM | logD [3, 8]: 1.9 | bioavailability (in words) [5]: good bioavailability | half-life [5]: 1.53 ± 1.06 h | bioavailability [5]: 32.9%

C[C@H]1N2C(=O)c3c(O)c(=O)c(C(=O)NCc4ccc(F)cc4F)cn3C[C@@H]2OC12CCCCC2 [Compound 12]
EC50 [1, 7]: 4.93 nM | CC50 at 3 days [2]: > 1000 nM

C[C@@H]1CCO[C@H]2Cn3cc(C(=O)NCc4ccc(F)cc4F)c(=O)c(O)c3C(=O)N12 [DTG, Dolutegravir, reference compound]
antiviral activity against HIV-1 pseudovirus (in words) ([1]; HEK 293T cells): have antiviral activity | EC50 [1, 7]: 1.49 nM | CC50 at 3 days [2]: > 1000 nM | logD [3, 8]: 1.6 | half-life [5]: 3.7 ± 0.09 h | bioavailability [5]: 46%

Cc1nnc(C(=O)NC(C)(C)c2nc(C(=O)NCc3ccc(F)cc3)c(O)c(=O)n2C)o1 [RAL, Raltegravir, reference compound]
antiviral activity against HIV-1 pseudovirus (in words) ([1]; HEK 293T cells): have antiviral activity | EC50 [1, 7]: 3.42 nM | CC50 at 3 days ([2]; HEK 293T cells, highest test concentration 1000 nM, read-out: CC50): > 1000 nM

C[C@]12CC[C@H]3[C@@H](CCC4=CC(=O)CC[C@@]43C)[C@@H]1CC[C@@H]2O [Testosterone, reference compound]
logD ([3]; n-octanol / pH 7.4 phosphate buffer, read-out: Log D (pH 7.4)): 2.85

(R)—N-(2,4-difluorophenyl)-6′-hydroxy-5′,7′-dioxo-5′,7′,11′,11a′-tetrahydro-2′H-spiro[cyclopropane-1,3′-oxazole[3,2-a]pyridino[1,2-d]pyrazine]-8′-formamide [Compound 18]
EC50 [1, 9]: 3.34 nM | CC50 [6]: > 1000 nM

(R)—N-(2,4-difluorophenyl)-7′-hydroxy-6′,8′-dioxo-2′,3′,6′,8′,12′,12a′-hexahydrospiro[cyclopropane-1,4′-pyridino[1′,2′:4,5]pyrazine[2,1-b][1,3]oxazine]-9′-formamide [Compound 15]
EC50 [1, 9]: 14 nM | CC50 [6]: > 1000 nM

(S)—N-(2,4-difluorophenyl)-6′-hydroxy-5′,7′-dioxo-5′,7′,11′,11a′-tetrahydro-2′H-spiro[cyclopropane-1,3′-oxazole[3,2-a]pyridino[1,2-d]pyrazine]-8′-formamide [Compound 17]
EC50 [1, 9]: 3.73 nM | CC50 [6]: > 1000 nM

(S)—N-(2,4-difluorophenyl)-7′-hydroxy-6′,8′-dioxo-2′,3′,6′,8′,12′,12a′-hexahydrospiro[cyclopropane-1,4′-pyridino[1′,2′:4,5]pyrazine[2,1-b][1,3]oxazine]-9′-formamide [Compound 14]
EC50 [1, 9]: 8.72 nM | CC50 [6]: > 1000 nM
